Laboratory results taken from the supplement of paper PMC10307832.

Columns and labels:
Test in all cases: relative viability (nuclei count vs DMSO), 5 days (fraction); higher = more cells survive
[1] = compound: OCc1c[nH]c2ccccc12 [Indole-3-carbinol] + N=C(N)NC(=N)NCCc1ccccc1 [Phenformin] (partner 250 µM)
In short: (§1)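 Lung cancer cell lines in 1536-well plates got either a single drug or a fixed anchor-drug dose together with five library-drug doses (not always all listed) in √10 steps, by pin tool, on the day after seeding. Nuclei were counted after 5 days, and relative viability is the treated-to-vehicle ratio of nuclei counts. Values are medians of duplicate plates.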

[2] = compound: OCc1c[nH]c2ccccc12 [Indole-3-carbinol] + CS(=O)(=O)N1CCN(Cc2cc3nc(-c4cccc5[nH]ncc45)nc(N4CCOCC4)c3s2)CC1 [Pictilisib] (partner 1 µM)
In short: as §1

[3] = compound: OCc1c[nH]c2ccccc12 [Indole-3-carbinol] + C[C@@H](Oc1cc(-c2cnn(C3CCNCC3)c2)cnc1N)c1c(Cl)ccc(F)c1Cl [Crizotinib] (partner 1 µM)
In short: as §1

[4] = compound: OCc1c[nH]c2ccccc12 [Indole-3-carbinol] + CCNC(=O)c1noc(-c2cc(C(C)C)c(O)cc2O)c1-c1ccc(CN2CCOCC2)cc1 [Luminespib] (partner 0.01 µM)
In short: as §1

[5] = compound: OCc1c[nH]c2ccccc12 [Indole-3-carbinol] + C[C@]1(O)C[C@@H](c2nc(-c3ccc4ccc(-c5ccccc5)nc4c3)c3c(N)nccn32)C1 [Linsitinib] (partner 1 µM)
In short: as §1

Cell Line | relative viability ([1]; first compound 0.253 µM) | relative viability ([1]; first compound 0.8 µM) | relative viability ([1]; first compound 2.53 µM) | relative viability ([1]; first compound 8 µM) | relative viability ([2]; first compound 0.253 µM) | relative viability ([2]; first compound 0.8 µM) | relative viability ([2]; first compound 2.53 µM) | relative viability ([2]; first compound 8 µM) | relative viability ([3]; first compound 0.253 µM) | relative viability ([3]; first compound 0.8 µM) | relative viability ([3]; first compound 2.53 µM) | relative viability ([3]; first compound 8 µM) | relative viability ([4]; first compound 0.253 µM) | relative viability ([4]; first compound 0.8 µM) | relative viability ([4]; first compound 2.53 µM) | relative viability ([4]; first compound 8 µM) | relative viability ([5]; first compound 0.253 µM) | relative viability ([5]; first compound 0.8 µM) | relative viability ([5]; first compound 2.53 µM) | relative viability ([5]; first compound 8 µM)
A-427 | 0.35 | 0.351 | 0.339 | 0.298 | 0.74 | 0.66 | 0.679 | 0.588 | 0.888 | 0.847 | 1.18 | 0.828 | 0.932 | 0.96 | 0.908 | 0.895 | 1.1 | 1.06 | 1.09 | 1.08
LXF-289 | 0.527 | 0.553 | 0.488 | 0.513 | 0.837 | 0.814 | 0.807 | 0.747 | 0.863 | 0.933 | 0.824 | 0.729 | 0.787 | 0.754 | 0.647 | 0.575 | 0.977 | 1.03 | 0.996 | 0.892
NCI-H727 | 0.532 | 0.502 | 0.458 | 0.673 | 0.263 | 0.409 | 0.477 | 0.494 | 0.795 | 1.05 | 0.906 | 0.832 | 0.355 | 0.452 | 0.344 | 0.328 | 0.178 | 0.31 | 0.268 | 0.283
NCI-H1437 | 0.308 | 0.323 | 0.29 | 0.448 | 0.535 | 0.438 | 0.466 | 0.433 | 0.959 | 1.03 | 0.943 | 0.9 | 1.07 | 1.2 | 1.13 | 1.11 | 0.986 | 1.16 | 1.04 | 0.894
RERF-LC-KJ | 0.392 | 0.415 | 0.428 | 0.401 | 0.512 | 0.541 | 0.562 | 0.581 | 0.862 | 0.917 | 0.84 | 0.793 | 1.25 | 1.18 | 1.23 | 1.11 | 0.961 | 0.943 | 0.868 | 0.825
NCI-H1792 | 0.191 | 0.26 | – | 0.194 | 0.217 | 0.221 | 0.257 | 0.245 | 0.95 | 1.01 | 0.95 | 0.984 | 0.416 | 0.484 | 0.368 | 0.398 | 0.499 | 0.37 | 0.506 | 0.47
HCC-44 | 0.168 | 0.198 | 0.187 | 0.295 | 0.52 | 0.499 | 0.49 | 0.506 | 0.891 | 0.946 | 0.913 | 0.782 | 1.04 | 0.812 | 1.1 | 0.942 | 0.74 | 0.705 | 0.614 | 0.625
EPLC-272H | 0.347 | 0.292 | 0.285 | 0.258 | 0.337 | 0.329 | 0.293 | 0.298 | 0.997 | 1.14 | 0.947 | 1.01 | 0.267 | 0.23 | 0.377 | 0.345 | 1.38 | 1.28 | 1.24 | 1.11
NCI-H358 | 0.383 | 0.33 | 0.345 | 0.325 | 0.408 | 0.354 | 0.344 | 0.32 | 0.64 | 0.698 | 0.735 | 0.461 | 0.366 | 0.447 | 0.458 | 0.233 | 0.697 | 0.7 | 0.734 | 0.709
NCI-H596 | 0.633 | 0.735 | 0.77 | 0.723 | 0.368 | 0.416 | 0.364 | 0.411 | 0.876 | 1.13 | 0.989 | 1 | 0.734 | 1.01 | 0.913 | 1 | 1.02 | 1.08 | 1.07 | 0.954
NCI-H322M | 0.685 | 0.764 | 0.746 | 0.761 | 0.45 | 0.487 | 0.486 | 0.502 | 1.09 | 0.989 | 1 | 0.892 | 0.828 | 0.861 | 0.895 | 0.783 | 0.9 | 0.899 | 0.974 | 0.839
NCI-H1563 | 0.657 | 0.652 | 0.636 | 0.644 | 0.667 | 0.611 | 0.664 | 0.662 | 0.769 | 0.883 | 0.866 | 0.879 | 0.454 | 0.494 | 0.512 | 0.495 | 1.24 | 1.27 | 1.23 | 1.08
